Data: paper PMC6155302, “Anti-Cancer Activity of Resveratrol and Derivatives Produced by Grapevine Cell Suspensions in a 14 L Stirred Bioreactor” (Molecules : A Journal of Synthetic Chemistry and Natural …, 2017)
Like-named read-outs stand apart in the source and are kept apart here.

Tests used:
HT-144 cells = assay: MTT cell viability assay, HT-144 melanoma cells; type: cell-based, human; conditions: for Cell viability inhibition, HT-144 (result in words): 10–100 μM, 6, 24 and 48 h; for IC50: Homo sapiens, HT-144, 24 h
Procedure: (§1) Three cell types were studied. The HT-144 and SKMEL-28 cell lines derived from human melanoma and were obtained from the American Tissue Culture Collection (ATCC). They were grown in Mc Coy’s 5a modified and minimal essential medium (MEM) respectively, supplemented with 10% (v/v) fetal bovine serum (FBS) and 1% (v/v) antibiotic (penicillin, streptomycin) at 37 °C in a humidified atmosphere of 5% CO2. Human dermal fibroblasts (HDF) were isolated from skin biopsies of healthy subjects. Briefly, the hypodermis was mechanically removed and explants were cut in 1 mm^2 pieces. Skin fragments were then cultivated in Dulbecco’s minimal essential medium (DMEM) supplemented with 20% FBS, 1% antibiotic and 1% fungizone at 37 °C in a humidified atmosphere of 5% CO2. The medium was changed every two days. After 4 weeks of cultures, fibroblasts have covered all the surface of the culture dishes and were trypsined. Cells were grown in DMEM containing 10% FBS and 1% antibiotic at 37 °C in a humidified atmosphere of 5% CO2. Subcultures 3 to 9 were used in this study.
(§2) The three cell types were seeded into 96-well plates (0.32 cm^2, 5500 cells in 200 μL medium par well). After 24 h of culture, the cells were treated in triplicate wells with different bio-produced stilbenes and synthetic resveratrol (≥99%, Sigma-Aldrich, Saint-Quentin Fallavier, France) amounts and treatment times. Compounds were dissolved in ethanol at a 5 × 10^−2 M final concentration and stored at −20 °C. Compounds were diluted in culture media, with or without FBS, to the desired final concentration. All control and treated cells received a maximal volume of 0.1% (v/v) of ethanol.
(§3) Cell viability was tested by the MTT [3-(4,5-dimethyl thiazol-2yl)-2,5-diphenyltetrazolium bromide] assay (Sigma-Aldrich). After MTT addition (0.5 mg/mL), the plates were incubated for 3 h at 37 °C in a humidified atmosphere of 5% CO2. At the end of the incubation period, the medium was removed and the converted dye was solubilized with dimethyl sulfoxide (DMSO). Absorbance of the converted dye was measured at a wavelength of 560 nm using a plate reader Tecan F200 Pro (Tecan, Lyon, France). The 50% inhibitory concentration (IC50) for each bio-produced stilbene was defined as the concentration producing 50% decrease in cell growth.

SKMEL-28 cells = assay: MTT cell viability assay, SKMEL-28 melanoma cells; type: cell-based, human; conditions: for Cell viability inhibition, SKMEL-28 (result in words): 10–100 μM, 6, 24 and 48 h; for IC50: Homo sapiens, SK-MEL-28, 24 h
Procedure: as §1, §2, §3

HDF cells = assay: MTT cell viability assay, healthy human dermal fibroblasts; type: cell-based; conditions: for Cell viability inhibition, HDF (result in words): 10–100 μM, 6, 24 and 48 h; for IC50: Homo sapiens, HDF, 24 h
Procedure: as §1, §2, §3

[1] = with FBS (10% FBS), read-out: IC50 HT-144 with FBS
[2] = without FBS (0% FBS), read-out: IC50 HT-144 without FBS
[3] = with FBS (10% FBS), read-out: IC50 SKMEL-28 with FBS
[4] = without FBS (0% FBS), read-out: IC50 SKMEL-28 without FBS
[5] = with FBS (10% FBS), read-out: IC50 HDF with FBS
[6] = without FBS (0% FBS), read-out: IC50 HDF without FBS

Structure (SMILES)	IC50 (HT-144 cells; [1]) [µM]	IC50 (HT-144 cells; [2]) [µM]	IC50 (SKMEL-28 cells; [3]) [µM]	IC50 (SKMEL-28 cells; [4]) [µM]	Cell viability inhibition, HT-144 (result in words) (HT-144 cells)	Cell viability inhibition, SKMEL-28 (result in words) (SKMEL-28 cells)	Cell viability inhibition, HDF (result in words) (HDF cells)	IC50 (HDF cells; [5]) [µM]	IC50 (HDF cells; [6]) [µM]
Oc1ccc(C(O)C(Oc2ccc(C=Cc3cc(O)cc(O)c3)cc2)c2cc(O)cc(O)c2)cc1 (stereo not drawn) [Dimer (6)]	> 100	24.9 ± 0.62	> 100	23 ± 0.3	significant cell viability inhibition	significant cell viability inhibition	significant cell viability inhibition	> 100	22.2 ± 2.61
Oc1ccc(/C=C/c2cc(O)cc(O)c2)cc1 [synthetic resveratrol, trans-resveratrol, reference compound]					dose-dependent decrease in cell growth	dose-dependent decrease in cell growth	dose-dependent decrease in cell growth		

Second part, led by results:

IC50 (HT-144 cells; [1]) [µM]	IC50 (HT-144 cells; [2]) [µM]	IC50 (SKMEL-28 cells; [3]) [µM]	IC50 (SKMEL-28 cells; [4]) [µM]	Structure (SMILES)	Cell viability inhibition, HT-144 (result in words) (HT-144 cells)	Cell viability inhibition, SKMEL-28 (result in words) (SKMEL-28 cells)	Cell viability inhibition, HDF (result in words) (HDF cells)	IC50 (HDF cells; [5]) [µM]	IC50 (HDF cells; [6]) [µM]
> 100	> 100	> 100	> 100	Oc1ccc([C@@H]2c3c(O)cc(O)cc3[C@H]3[C@H](c4ccc(O)cc4)c4c(O)cc(O)cc4[C@@H]23)cc1 [Pallidol, pallidol]				> 100	> 100
93.3 ± 7.6	> 100	> 100	> 100	Oc1ccc(/C=C/c2cc(O)cc(O)c2)cc1 [Trans-resveratrol, trans-resveratrol]				> 100	> 100
82.3 ± 3.23	17.58 ± 0.09	86.6 ± 2.59	15.9 ± 0.44	Oc1ccc(/C=C/c2cc(O)cc3c2[C@@H](c2cc(O)cc(O)c2)[C@H](c2ccc(O)cc2)O3)cc1 [ɛ-viniferin, ε-viniferin]	significant cell viability inhibition	significant cell viability inhibition	significant cell viability inhibition	91.9 ± 11.3	16.4 ± 1.19
